“And” between values parts separate entries of the source, which are not always exact repeats. Identical values can stand only once. Like-named read-outs stand apart in the source and are kept apart here.
Tests used:
[1] = Critical aggregation concentration (CAC) by surface tension; type: physicochemical; conditions: in water
Method: The CACs of the ILs were determined by measuring the surface tension (Tensiometer du Nouy, Force Tensiometer K6 from KRÜSS (GmbH)) of aqueous solutions with increasing IL concentrations. Milli-Q H2O was used as a reference, with γ equal to 71 ± 1.3 mN/m at 25 ± 2 °C (Dortmund databank reference, 71.5 ± 0.5 mN/m 24 ± 1.4 °C). Surface tension values were plotted vs. logarithms of the ILs’ concentrations, linear fits were applied to the data points, and CAC was determined as the intersection of the two linear fits relative to the initial surface tension depression and the further plateau.

[2] = IL aggregates' size and zeta potential in aqueous solutions (DLS, Zetasizer); type: physicochemical
Method: The size distribution and zeta potential values of the ILs’ aggregates in aqueous solutions were evaluated by using a Zetasizer Nano ZS (Malvern) at 25 °C. The samples were prepared by adding an excess of either DIA or Rhe (5 mg/mL) to the aqueous IL solutions, incubating them for 30 min at 25 °C, and finally removing the excess drugs by centrifugation. […] In contrast, for PB solutions, the solutions were prepared in water, and […] of 100 mM pH 7 phosphate buffer was added per 1 mL of aqueous solution, directly in the cuvette, before the dynamic light scattering (DLS) analysis started. The concentrations of the solubilised drug were determined by UV–Vis analysis.

[3] = system: type II porcine gastric mucin; assay: Mucoadhesion by microrheological method; type: physicochemical
Method: The measurements were performed using the Zetasizer Nano ZS instrument, as previously reported. The microrheological characterisation of the ILs was performed using type II porcine gastric mucin. Porcine gastric mucin was used because no ocular mucins were available, and as it has already been used for ocular models. Briefly, a 3 mg/mL suspension of type II porcine gastric mucin was prepared in Milli-Q water and filtered through 0.45 µm cellulose acetate filters. Next, 0.27 M and 0.20 M solutions of both ionic liquids in deionised water were prepared (corresponding to concentrations 15% higher and lower than the CAC, respectively). One millilitre of each sample to be tested had the following composition: 5 µL of tracer (latex polystyrene particles, diameter 500 nm, Beckman), 7.38 mg/mL of IL solution, 0.3 mg of mucin, and 8.1 mg/mL of 5% NaCl. As a reference, 1 mL of sample was prepared with the same composition but without the ILs. All measurements were carried out in triplicate.

[4] = system: BALB/3T3 clone A31 fibroblast cells; assay: Cytotoxicity screening (WST-1); type: cell-based, murine; conditions: Mus musculus, 4 h incubation, read-out: IC50 of cell viability
Method: BALB/3T3 clone A31 fibroblast cells were grown in Dulbecco’s Modified Eagle Medium (DMEM), supplemented with 2 mM L-glutamine, 1% penicillin/streptomycin, and 10% bovine calf serum. Cells were grown in a CO2 incubator (Heracell 150i series) at 37 °C and 5% CO2, with cells sub-cultured at 80–90% confluency. The cell monolayers were rinsed with PBS and treated with trypsin–EDTA to detach the cells before their resuspension in fresh media. A subconfluent monolayer of BALB/3T3 clone A31 fibroblast cells was trypsinised, centrifuged at 1000 rpm for 5 min, resuspended in growth medium, and counted.
A cytotoxicity screening was carried out for both ILs (range […]), as well as DIA and Rhe (0.5–200 mg/mL). Briefly, BALB/3T3 clone A31 fibroblast cells were seeded in each well of 96-well plates at a seeding density of 6 × 10^3 cells/well for 24 h, until 60–70% confluence was reached. After 24 h, the medium was then removed from each well and replaced with DMEM containing the samples.
After 4 h of incubation, the media were removed, replaced with fresh medium containing 10% WST-1 reagent solution, and maintained for 4 h at 37° C with 5% CO2. Afterwards, formazan dye absorbance was quantified at 450 nm with the reference wavelength at 655 nm by using a multilabel reader (BioTek 800/TS, Thermo Scientific).

S. aureus W4 = assay: Killing assay; type: cell-based, Staphylococcus aureus; conditions: 3 h incubation in 5% TSB, ILs 0.27 M
Method: (§1) To this end, the bacterial strains were grown in TSB until the exponential phase, and approximately 5 × 10^4 CFU/mL-contained in 10 μL-was added to 5 μL of TSB, 35 μL of water, and 50 μL of one of the following solutions corresponding to the eye drop compositions tested in vivo: Bet6 or Carn6 with 0.27 M or 0.34 M DIA, plain DIA (0.34 M) solution, or plain Bet6/plain Carn6, both at 0.27 M. All solutions were prepared in CB. The samples were incubated at 37 °C with shaking for 3 h. A sample containing 0.6% DMSO (corresponding to the highest concentration of DMSO tested) was used as a control. Following incubation, the samples were diluted 10-fold in LB and plated on tryptone soy agar (TSA, Oxoid) to determine the number of CFU. Bactericidal activity was defined as a reduction of at least 3 Log10 in the number of viable bacteria as compared to the inoculum.

P. aeruginosa ATCC 27853 = assay: Killing assay; type: cell-based, Pseudomonas aeruginosa; conditions: 3 h incubation in 5% TSB, ILs 0.27 M
Method: as §1

[5] = IL 180 μg/mL, DIA + (saturation), CB pH5
[6] = IL 180 μg/mL, Rhe + (saturation), PB pH7
[7] = IL 200 μg/mL, DIA + (saturation), CB pH5
[8] = IL 200 μg/mL, DIA + (saturation), H2O pH4
[9] = IL 200 μg/mL, Rhe + (saturation), H2O pH4

CCCCCCOC(=O)C[C@@H](O)C[N+](C)(C)C [Carn6, (R)-(4-hexyloxy-2-hydroxy-4-oxobutyl)-trimethylammonium bromide]
surface tension at the CAC (σ) [1]: 36.1 mN/m | critical aggregation concentration (CAC) ([1]; via surface tension): 0.226 M and 0.226 ± 0.020 M | PDI ([2]; IL 90 μg/mL, no drug, H2O pH4): 0.01 ± 0.002 | Ø (aggregates size) ([2]; IL 90 μg/mL, no drug, H2O pH4): 1.17 ± 0.03 nm | PDI ([2]; IL 105 μg/mL, no drug, H2O pH4): 0.01 ± 0.002 | Ø (aggregates size) ([2]; IL 105 μg/mL, no drug, H2O pH4): 1.53 ± 0.07 nm | PDI ([2]; IL 170 μg/mL, no drug, H2O pH4): 0.03 ± 0.016 | Ø (aggregates size) ([2]; IL 170 μg/mL, no drug, H2O pH4): 2.12 ± 0.14 nm | PDI [2, 5]: 0.01 ± 0.005 | Ø (aggregates size) [2, 5]: 2.24 ± 0.47 nm | ζ (zeta potential) [2, 5]: 1.85 ± 0.47 mV | PDI [2, 6]: 0.02 ± 0.005 | Ø (aggregates size) [2, 6]: 2.03 ± 0.46 nm | ζ (zeta potential) [2, 6]: 9.38 ± 1.22 mV | PDI ([2]; IL 180 μg/mL, no drug, CB pH5): 0.01 ± 0.005 | Ø (aggregates size) ([2]; IL 180 μg/mL, no drug, CB pH5): 2.04 ± 0.43 nm | ζ (zeta potential) ([2]; IL 180 μg/mL, no drug, CB pH5): 2.56 ± 0.34 mV | PDI ([2]; IL 180 μg/mL, no drug, PB pH7): 0.004± 0.005 | Ø (aggregates size) ([2]; IL 180 μg/mL, no drug, PB pH7): 1.91 ± 0.27 nm | ζ (zeta potential) ([2]; IL 180 μg/mL, no drug, PB pH7): 10.70 ± 1.16 mV | PDI [2, 7]: 0.01 ± 0.005 | Ø (aggregates size) [2, 7]: 2.40 ± 0.56 nm | ζ (zeta potential) [2, 7]: 4.17 ± 0.20 mV | PDI [2, 8]: 0.02 ± 0.005 | Ø (aggregates size) [2, 8]: 2.14 ± 0.55 nm | ζ (zeta potential) [2, 8]: 12.20 ± 1.96 mV | PDI [2, 9]: 0.02 ± 0.005 | Ø (aggregates size) [2, 9]: 2.11 ± 0.50 nm | ζ (zeta potential) [2, 9]: 12.80 ± 1.27 mV | PDI ([2]; IL 200 μg/mL, no drug, CB pH5): 0.07 ± 0.005 | Ø (aggregates size) ([2]; IL 200 μg/mL, no drug, CB pH5): 2.34 ± 0.66 nm | ζ (zeta potential) ([2]; IL 200 μg/mL, no drug, CB pH5): 2.08 ± 0.13 mV | PDI ([2]; IL 200 μg/mL, no drug, H2O pH4): 0.01 ± 0.005 | Ø (aggregates size) ([2]; IL 200 μg/mL, no drug, H2O pH4): 1.87 ± 0.42 nm | ζ (zeta potential) ([2]; IL 200 μg/mL, no drug, H2O pH4): 14.30 ± 2.33 mV | Relative Viscosity ([3]; mucin with IL at 0.20 M (lower than CAC)): 0.75 ± 0.01 cP | Relative Viscosity ([3]; mucin with IL at 0.27 M (higher than CAC)): 1.31 ± 0.26 cP | IC50 [4]: 9000 µg/mL | IC50 ([4]; murine fibroblasts): 27.8 mM | bactericidal effect (S. aureus W4; DIA 0.34 M): strong bactericidal effect | CFU after treatment (limit of detection) (S. aureus W4; DIA 0.34 M if loaded): < 100 CFU/mL | bactericidal effect (P. aeruginosa ATCC 27853; DIA 0.34 M): strong bactericidal effect | CFU after treatment (limit of detection) (P. aeruginosa ATCC 27853; DIA 0.34 M if loaded): < 100 CFU/mL
